Experimental data as given in ChEMBL document CHEMBL1201862, “PubChem BioAssay data set” (2004).
The source made the active and inactive calls.

Experiments:
[1] = target: Intestinal-type alkaline phosphatase (Mus musculus, UniProt P24822); experiment: PubChem AID 488785; assay type: functional
[2] = target: T1, RNA-binding protein pos-1 (Caenorhabditis elegans, UniProt G5EF15); experiment: disruptors of C. elegans POS-1 RNA interaction – biochemical, fluorescence polarization, dose response (AID 1964);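 also: purified POS-1 fused to maltose binding protein made in E. coli; potency of compounds blocking POS-1 binding to fluorescent RNA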
T1 sequence (G5EF15 whole entry): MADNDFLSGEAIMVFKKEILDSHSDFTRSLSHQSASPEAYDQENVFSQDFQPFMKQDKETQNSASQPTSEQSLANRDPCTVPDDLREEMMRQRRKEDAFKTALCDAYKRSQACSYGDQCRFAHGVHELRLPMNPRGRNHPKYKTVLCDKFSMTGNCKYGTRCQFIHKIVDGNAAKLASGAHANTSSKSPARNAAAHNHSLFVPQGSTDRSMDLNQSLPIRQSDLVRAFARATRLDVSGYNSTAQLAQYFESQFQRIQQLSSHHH

[3] = target: Intestinal-type alkaline phosphatase (Homo sapiens, UniProt P09923); experiment: inhibition of human intestinal alkaline phosphatase – biochemical, dose response (AID 488876); assay type: functional
Chain of Intestinal-type alkaline phosphatase (Homo sapiens, UniProt P09923) (P09923 whole entry): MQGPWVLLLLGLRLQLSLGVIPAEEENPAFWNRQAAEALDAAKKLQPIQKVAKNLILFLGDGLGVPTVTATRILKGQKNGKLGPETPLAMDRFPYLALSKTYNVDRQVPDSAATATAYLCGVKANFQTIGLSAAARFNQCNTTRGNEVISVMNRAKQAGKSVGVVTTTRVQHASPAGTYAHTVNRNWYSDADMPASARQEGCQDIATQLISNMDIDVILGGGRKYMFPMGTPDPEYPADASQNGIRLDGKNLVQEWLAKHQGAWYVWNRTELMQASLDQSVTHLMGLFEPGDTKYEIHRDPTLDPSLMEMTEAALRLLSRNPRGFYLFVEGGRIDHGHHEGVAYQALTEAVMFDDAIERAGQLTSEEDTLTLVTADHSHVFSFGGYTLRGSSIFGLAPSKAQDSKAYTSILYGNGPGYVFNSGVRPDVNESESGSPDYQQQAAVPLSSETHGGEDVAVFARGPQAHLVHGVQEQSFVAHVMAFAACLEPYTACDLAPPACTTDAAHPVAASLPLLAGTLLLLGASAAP

[4] = target: T2, Zinc finger protein mex-5 (Caenorhabditis elegans, UniProt Q9XUB2); experiment: potency of MEX-5 RNA-binding blockers – biochemical, C. elegans, fluorescence polarization, dose response (AID 1960)
T2 sequence (Q9XUB2 whole entry): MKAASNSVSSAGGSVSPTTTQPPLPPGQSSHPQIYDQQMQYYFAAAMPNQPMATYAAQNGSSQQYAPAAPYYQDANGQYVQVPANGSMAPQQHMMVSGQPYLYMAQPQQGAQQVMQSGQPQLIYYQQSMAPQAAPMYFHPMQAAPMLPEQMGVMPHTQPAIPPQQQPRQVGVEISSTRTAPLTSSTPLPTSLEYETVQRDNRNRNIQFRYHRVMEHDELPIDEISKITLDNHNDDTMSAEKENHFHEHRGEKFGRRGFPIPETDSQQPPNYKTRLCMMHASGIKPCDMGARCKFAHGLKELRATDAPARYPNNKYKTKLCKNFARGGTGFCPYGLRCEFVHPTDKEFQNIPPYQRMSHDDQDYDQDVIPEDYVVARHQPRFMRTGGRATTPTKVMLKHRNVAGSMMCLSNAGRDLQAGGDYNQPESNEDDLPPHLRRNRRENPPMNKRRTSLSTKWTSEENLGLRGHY

[5] = target: Long-chain-fatty-acid--AMP ligase FadD28 (Mycobacterium tuberculosis, UniProt P9WQ59); experiment: Fluorescence polarization aasay to screen for inhibitors that compete for the binding of FadD28 to a bisubstrate Measured in Biochemical System Using Plate Reader - 2147-01_Inhibitor_Dose_CherryPick_Activity.; assay type: functional, Mycobacterium tuberculosis H37Rv
Chain of Long-chain-fatty-acid--AMP ligase FadD28 (P9WQ59 whole entry): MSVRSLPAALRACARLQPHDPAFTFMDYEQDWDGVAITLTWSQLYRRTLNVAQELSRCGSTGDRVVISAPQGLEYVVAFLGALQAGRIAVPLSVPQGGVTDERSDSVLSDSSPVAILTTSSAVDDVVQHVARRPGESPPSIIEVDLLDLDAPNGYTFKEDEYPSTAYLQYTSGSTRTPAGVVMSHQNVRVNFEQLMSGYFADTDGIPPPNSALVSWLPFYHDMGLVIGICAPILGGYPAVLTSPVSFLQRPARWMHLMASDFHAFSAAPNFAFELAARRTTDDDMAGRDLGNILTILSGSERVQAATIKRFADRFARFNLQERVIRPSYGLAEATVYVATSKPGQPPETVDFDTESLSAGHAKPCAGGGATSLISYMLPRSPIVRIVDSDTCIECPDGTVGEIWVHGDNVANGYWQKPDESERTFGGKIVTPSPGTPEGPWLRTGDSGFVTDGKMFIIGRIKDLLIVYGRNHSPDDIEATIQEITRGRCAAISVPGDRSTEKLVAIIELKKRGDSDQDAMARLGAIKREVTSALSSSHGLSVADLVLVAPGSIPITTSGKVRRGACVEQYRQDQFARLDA

[6] = target: T3, Alkaline phosphatase, tissue-nonspecific isozyme (Homo sapiens, UniProt P05186); experiment: TNAP enzyme inhibition by screening hits, dose response, selectivity assay for mouse IAP inhibitor project, biochemical, human TNAP, uHTS hits (AID 488906); assay type: functional
T3 sequence (P05186 whole entry): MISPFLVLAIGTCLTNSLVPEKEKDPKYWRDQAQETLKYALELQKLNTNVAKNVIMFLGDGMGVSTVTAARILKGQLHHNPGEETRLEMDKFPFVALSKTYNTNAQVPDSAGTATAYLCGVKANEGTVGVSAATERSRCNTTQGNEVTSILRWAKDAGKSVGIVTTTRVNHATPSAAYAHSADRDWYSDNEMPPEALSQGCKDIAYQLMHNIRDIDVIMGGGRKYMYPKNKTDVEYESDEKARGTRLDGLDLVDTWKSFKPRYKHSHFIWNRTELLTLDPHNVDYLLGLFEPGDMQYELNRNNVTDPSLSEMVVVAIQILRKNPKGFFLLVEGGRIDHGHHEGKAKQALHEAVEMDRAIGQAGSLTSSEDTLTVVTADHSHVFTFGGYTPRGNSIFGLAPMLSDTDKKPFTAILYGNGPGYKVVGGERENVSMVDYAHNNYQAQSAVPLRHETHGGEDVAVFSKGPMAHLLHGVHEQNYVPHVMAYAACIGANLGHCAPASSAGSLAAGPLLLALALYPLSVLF

[7] = target: Dual specificity tyrosine-phosphorylation-regulated kinase 1A (Rattus norvegicus, UniProt Q63470); assay type: biochemical, Homo sapiens
[8] = target: Lysine-specific demethylase 4A (Homo sapiens, UniProt O75164); experiment: inhibition of JMJD2A H3K9me3 demethylation – biochemical, DELFIA europium, cherry-picked samples, selectivity assay for GASC-1 inhibitor project, dose response (AID 488840)
Chain of Lysine-specific demethylase 4A (O75164 whole entry): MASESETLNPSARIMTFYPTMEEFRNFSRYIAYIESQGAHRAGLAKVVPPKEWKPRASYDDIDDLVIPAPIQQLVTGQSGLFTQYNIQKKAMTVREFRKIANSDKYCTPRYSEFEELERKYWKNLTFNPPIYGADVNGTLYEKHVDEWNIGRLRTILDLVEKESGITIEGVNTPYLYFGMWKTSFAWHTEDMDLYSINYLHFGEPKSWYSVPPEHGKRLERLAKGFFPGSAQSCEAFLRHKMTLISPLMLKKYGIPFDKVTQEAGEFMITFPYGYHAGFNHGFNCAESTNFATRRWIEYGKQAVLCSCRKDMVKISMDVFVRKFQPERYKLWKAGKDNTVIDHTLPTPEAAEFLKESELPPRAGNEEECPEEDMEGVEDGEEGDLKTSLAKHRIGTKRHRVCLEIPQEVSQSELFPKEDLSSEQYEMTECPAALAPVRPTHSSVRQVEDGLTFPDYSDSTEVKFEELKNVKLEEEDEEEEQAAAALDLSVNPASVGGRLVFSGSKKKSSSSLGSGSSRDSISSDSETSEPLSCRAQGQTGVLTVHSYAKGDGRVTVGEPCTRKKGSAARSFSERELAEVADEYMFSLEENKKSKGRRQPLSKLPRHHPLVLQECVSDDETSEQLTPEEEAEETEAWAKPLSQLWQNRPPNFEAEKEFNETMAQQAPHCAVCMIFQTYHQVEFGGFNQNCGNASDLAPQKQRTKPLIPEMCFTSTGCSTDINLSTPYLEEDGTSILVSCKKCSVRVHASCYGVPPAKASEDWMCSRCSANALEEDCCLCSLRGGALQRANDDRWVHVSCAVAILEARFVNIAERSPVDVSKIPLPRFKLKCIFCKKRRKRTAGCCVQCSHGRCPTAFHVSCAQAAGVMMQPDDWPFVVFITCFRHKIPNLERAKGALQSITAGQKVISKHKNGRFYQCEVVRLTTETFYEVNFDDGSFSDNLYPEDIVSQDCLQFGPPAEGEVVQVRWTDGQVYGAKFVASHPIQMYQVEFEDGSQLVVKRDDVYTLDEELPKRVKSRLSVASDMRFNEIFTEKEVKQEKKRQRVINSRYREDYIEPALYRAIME

[9] = target: Lysine-specific demethylase 4C (Homo sapiens, UniProt Q9H3R0); experiment: inhibition of JMJD2C H3K9me3 demethylation – biochemical, DELFIA europium, cherry-picked samples, dose response (AID 488835); assay type: functional
Chain of Lysine-specific demethylase 4C (Q9H3R0 whole entry): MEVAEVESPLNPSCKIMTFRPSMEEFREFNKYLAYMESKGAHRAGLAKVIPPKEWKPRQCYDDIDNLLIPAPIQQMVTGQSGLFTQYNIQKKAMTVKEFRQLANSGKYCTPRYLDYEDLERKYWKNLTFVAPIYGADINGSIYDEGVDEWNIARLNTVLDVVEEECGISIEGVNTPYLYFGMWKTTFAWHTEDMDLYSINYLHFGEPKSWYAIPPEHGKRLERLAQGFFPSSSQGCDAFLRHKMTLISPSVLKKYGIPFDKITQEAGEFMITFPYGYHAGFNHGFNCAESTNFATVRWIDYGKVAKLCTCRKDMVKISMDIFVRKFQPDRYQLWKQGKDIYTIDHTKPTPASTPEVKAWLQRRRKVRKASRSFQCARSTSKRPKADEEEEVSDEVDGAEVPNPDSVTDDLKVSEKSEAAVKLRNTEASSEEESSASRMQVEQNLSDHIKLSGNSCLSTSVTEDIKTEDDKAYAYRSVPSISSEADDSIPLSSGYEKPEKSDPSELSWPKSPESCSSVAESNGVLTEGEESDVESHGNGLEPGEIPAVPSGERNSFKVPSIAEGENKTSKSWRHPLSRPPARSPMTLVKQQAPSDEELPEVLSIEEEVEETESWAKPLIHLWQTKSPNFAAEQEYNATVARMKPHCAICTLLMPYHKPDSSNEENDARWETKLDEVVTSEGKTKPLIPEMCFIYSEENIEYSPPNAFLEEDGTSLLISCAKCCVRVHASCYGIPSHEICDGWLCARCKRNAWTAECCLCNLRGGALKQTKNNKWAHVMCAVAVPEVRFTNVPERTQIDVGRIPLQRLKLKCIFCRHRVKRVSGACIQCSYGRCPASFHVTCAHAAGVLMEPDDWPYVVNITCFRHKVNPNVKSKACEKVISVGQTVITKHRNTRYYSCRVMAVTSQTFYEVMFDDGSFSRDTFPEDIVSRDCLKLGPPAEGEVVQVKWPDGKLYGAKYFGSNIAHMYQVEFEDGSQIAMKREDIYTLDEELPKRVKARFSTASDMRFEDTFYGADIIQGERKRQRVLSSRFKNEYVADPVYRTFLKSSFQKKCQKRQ

[10] = test system: A-375; experiment: proliferation inhibition in MITF-low A375 cells – cell-based, cherry-pick samples, set 2, counter-screen for MITF modulator project, dose response (AID 540335); assay type: functional; settings: Homo sapiens
[11] = test system: A-375; experiment: MITF: Counter assay: A375 proliferation Measured in Cell-Based System Using Plate Reader - 2084-03_Inhibitor_Dose_DryPowder_Activity. [Related pubchem assays (depositor defined):AID488944]; assay type: functional; settings: Homo sapiens

Chain of Intestinal-type alkaline phosphatase (Mus musculus, UniProt P24822) (P24822 whole entry, the tested form may be a part): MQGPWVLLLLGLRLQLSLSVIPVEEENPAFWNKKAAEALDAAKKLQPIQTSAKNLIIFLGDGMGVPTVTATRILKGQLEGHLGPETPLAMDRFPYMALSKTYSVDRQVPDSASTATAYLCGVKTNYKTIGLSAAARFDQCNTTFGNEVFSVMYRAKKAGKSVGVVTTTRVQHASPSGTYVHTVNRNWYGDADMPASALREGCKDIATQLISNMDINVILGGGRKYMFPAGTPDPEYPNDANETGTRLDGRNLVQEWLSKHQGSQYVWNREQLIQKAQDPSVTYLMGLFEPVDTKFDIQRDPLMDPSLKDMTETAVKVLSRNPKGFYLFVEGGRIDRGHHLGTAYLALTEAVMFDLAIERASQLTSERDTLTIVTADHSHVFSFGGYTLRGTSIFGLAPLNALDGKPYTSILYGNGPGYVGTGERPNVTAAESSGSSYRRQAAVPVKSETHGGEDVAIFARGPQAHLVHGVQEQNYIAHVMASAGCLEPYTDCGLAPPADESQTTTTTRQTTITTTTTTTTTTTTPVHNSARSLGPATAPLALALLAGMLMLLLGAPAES

## NS(=O)(=O)c1ccc(-c2ccc(/C=C3\NC(=S)NC3=O)o2)cc1
[1]
  IC50: 9.48 µM (active)
[2]
  EC50: 21.7 µM (inconclusive)
[3]
  IC50: > 100 µM (inactive)
[4]
  EC50: 10.8 µM (inconclusive)
[5]
  AC50: 77.2 µM (active)
[6]
  IC50: 35.3 µM (active)
[7]
  AC50: 18.3 µM (active)

## Cc1ccc(N(CC(=O)N2CCn3c2nc2ccccc23)S(=O)(=O)c2c(C)n[nH]c2C)cc1
[8]
  AC50: 55.7 µM (active)

## C=CCN1C(=O)NC(=O)/C(=C/c2ccoc2)C1=O
[9]
  AC50: 22.2 µM (active)

## Cn1c(/C(C#N)=C/c2ccc(-c3ccc(S(N)(=O)=O)cc3)o2)nc2ccccc21
[10]
  AC50: > 11 µM (active)
[11]
  AC50: > 11 µM (active)
